Assay results taken from ChEMBL document CHEMBL2390865, “Discovery of aryl ureas and aryl amides as potent and selective histamine H3 receptor antagonists for the treatment of obesity (part II)” (Bioorg Med Chem Lett, 2013).
Converted amounts (≈) assume the structure as drawn. The source made the active and inactive calls. No cut-off for these calls is given here.

Assays:
[1] = target: Histamine H2 receptor (Homo sapiens) (UniProt P25021); assay: Binding affinity to human histamine H2 receptor
[2] = Antagonist activity at rhesus monkey histamine H3 receptor by GTPgammaS binding assay; set-up: species or system Macaca mulatta
Mus musculus [3] = assay: Antiobesity activity in diet-induced obese mouse assessed as reduction in accumulated food intake at 1 to 3 mg/kg, po after 12 hrs (reference value: 27.3 %); format: functional; set-up: scale not given: the % may be the effect or the level left; conditions: dose mg/kg 1-3
[4] = Solubility of the compound; format: physicochemical
[5] = Drug metabolism in rat liver microsomes; format: ADME, Microsome; conditions: read-out: Drug metabolism
[6] = Drug metabolism in human liver microsomes; format: ADME, Microsome; conditions: read-out: Drug metabolism
Mus musculus [7] = assay: Antiobesity activity in diet-induced obese mouse assessed as reduction in accumulated food intake at 1 to 3 mg/kg, po after 4 hrs (reference value: -4.7 %); format: functional; set-up: scale not given: the % may be the effect or the level left; conditions: dose mg/kg 1-3
[8] = Displacement of [3H]N-alpha-methylhistamine from rhesus monkey histamine H3 receptor transfected in CHO cells; format: cell-based, Macaca mulatta
Histamine H3 receptor [9] = target: Histamine H3 receptor (Rattus norvegicus, UniProt Q9QYN8); assay: Displacement of [3H]N-alpha-methylhistamine from rat histamine H3 receptor
[10] = Apparent permeability across human Caco2/TC7 cells; format: ADME, cell-based; conditions: Caco-2
Histamine H1 receptor = Histamine H1 receptor (Homo sapiens, UniProt P35367); assay: Binding affinity to human histamine H1 receptor
Histamine H3 receptor [11] = target: T1, Histamine H3 receptor (Homo sapiens, UniProt Q9Y5N1); assay: Displacement of [3H]N-alpha-methylhistamine from human histamine H3 receptor
Mus musculus [12] = assay: Antiobesity activity in diet-induced obese mouse assessed as reduction in accumulated food intake at 1 to 3 mg/kg, po after 6 hrs (reference value: 0.1 %); format: functional; set-up: scale not given: the % may be the effect or the level left; conditions: dose mg/kg 1-3
[13] = target: Voltage-gated inwardly rectifying potassium channel KCNH2 (Homo sapiens, UniProt Q12809); assay: Inhibition of human ERG channel
Mus musculus [14] = assay: Antiobesity activity in po dosed diet-induced obese mouse assessed as reduction in accumulated food intake after 4 to 12 hrs; format: functional, organism-based
[15] = Drug metabolism in mouse liver microsomes; format: ADME, Microsome; conditions: read-out: Drug metabolism
hERG (KCNH2) [16] = target: T2, hERG (KCNH2) (Homo sapiens, UniProt Q12809); assay: Inhibition of human ERG channel at 10 uM
hERG (KCNH2) [17] = target: T2, hERG (KCNH2); assay: Inhibition of human ERG channel at 1 uM
Histamine H3 receptor [18] = target: T1, Histamine H3 receptor; assay: Antagonist activity at human histamine H3 receptor at 10 uM by GTPgammaS binding assay; format: functional
Histamine H3 receptor [19] = target: T1, Histamine H3 receptor; assay: Antagonist activity at human histamine H3 receptor by FLIPR assay

T1 sequence (Q9Y5N1 whole entry): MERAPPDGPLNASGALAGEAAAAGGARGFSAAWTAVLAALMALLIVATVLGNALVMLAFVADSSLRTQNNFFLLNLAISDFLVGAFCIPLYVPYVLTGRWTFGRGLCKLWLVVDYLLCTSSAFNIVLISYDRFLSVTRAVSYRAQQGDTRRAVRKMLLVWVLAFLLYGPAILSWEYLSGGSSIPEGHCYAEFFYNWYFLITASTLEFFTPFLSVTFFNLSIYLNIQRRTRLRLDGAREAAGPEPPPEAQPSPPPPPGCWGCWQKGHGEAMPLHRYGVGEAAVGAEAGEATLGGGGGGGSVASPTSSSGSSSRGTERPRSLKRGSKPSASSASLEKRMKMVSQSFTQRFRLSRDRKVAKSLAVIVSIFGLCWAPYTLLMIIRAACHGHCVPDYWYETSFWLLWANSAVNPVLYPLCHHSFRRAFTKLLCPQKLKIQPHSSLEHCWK
Voltage-gated inwardly rectifying potassium channel KCNH2, sequence (Q12809 whole entry): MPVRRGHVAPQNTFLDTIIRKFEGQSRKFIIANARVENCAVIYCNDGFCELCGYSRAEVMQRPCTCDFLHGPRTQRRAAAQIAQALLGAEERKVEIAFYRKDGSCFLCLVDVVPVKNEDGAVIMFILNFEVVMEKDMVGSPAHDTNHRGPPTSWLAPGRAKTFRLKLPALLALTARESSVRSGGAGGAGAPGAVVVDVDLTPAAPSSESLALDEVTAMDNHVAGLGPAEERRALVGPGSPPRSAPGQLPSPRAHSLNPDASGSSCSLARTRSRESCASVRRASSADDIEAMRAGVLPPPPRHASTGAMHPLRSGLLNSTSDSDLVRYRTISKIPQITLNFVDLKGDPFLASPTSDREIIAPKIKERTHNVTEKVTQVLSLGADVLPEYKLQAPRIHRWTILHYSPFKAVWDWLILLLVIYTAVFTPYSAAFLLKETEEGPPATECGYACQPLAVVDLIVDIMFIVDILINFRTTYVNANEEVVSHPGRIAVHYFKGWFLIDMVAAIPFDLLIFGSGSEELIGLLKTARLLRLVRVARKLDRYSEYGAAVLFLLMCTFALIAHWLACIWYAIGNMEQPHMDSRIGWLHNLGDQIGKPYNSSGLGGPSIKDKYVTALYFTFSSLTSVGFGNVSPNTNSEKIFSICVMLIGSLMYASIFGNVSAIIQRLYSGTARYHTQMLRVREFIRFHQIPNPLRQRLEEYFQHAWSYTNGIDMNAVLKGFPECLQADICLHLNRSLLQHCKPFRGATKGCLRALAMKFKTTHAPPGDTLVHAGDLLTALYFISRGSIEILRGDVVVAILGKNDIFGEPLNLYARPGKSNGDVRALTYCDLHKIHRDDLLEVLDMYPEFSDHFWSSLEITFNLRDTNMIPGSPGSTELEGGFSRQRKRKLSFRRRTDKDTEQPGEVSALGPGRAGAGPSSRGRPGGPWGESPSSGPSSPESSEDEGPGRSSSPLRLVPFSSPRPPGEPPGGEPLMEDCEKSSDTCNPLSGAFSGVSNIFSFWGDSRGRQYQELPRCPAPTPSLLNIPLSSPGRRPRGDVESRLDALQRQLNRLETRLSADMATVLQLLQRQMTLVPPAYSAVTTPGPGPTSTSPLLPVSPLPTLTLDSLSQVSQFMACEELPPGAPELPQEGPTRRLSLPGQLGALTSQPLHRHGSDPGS
T2 sequence (Q12809 whole entry): as above
Histamine H3 receptor (Rattus norvegicus, UniProt Q9QYN8), sequence (Q9QYN8 whole entry): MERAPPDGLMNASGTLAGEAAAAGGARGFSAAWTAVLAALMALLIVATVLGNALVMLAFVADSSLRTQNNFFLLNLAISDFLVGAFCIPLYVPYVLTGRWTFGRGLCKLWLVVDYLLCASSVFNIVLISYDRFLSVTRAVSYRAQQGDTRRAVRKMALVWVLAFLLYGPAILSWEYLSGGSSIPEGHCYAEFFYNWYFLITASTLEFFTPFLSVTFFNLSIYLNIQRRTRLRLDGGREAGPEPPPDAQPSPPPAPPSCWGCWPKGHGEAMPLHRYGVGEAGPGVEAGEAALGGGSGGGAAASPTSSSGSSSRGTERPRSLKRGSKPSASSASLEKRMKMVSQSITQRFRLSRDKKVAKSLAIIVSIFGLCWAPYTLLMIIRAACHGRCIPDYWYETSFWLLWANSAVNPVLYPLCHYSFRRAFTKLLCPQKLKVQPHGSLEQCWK
Histamine H1 receptor, sequence (P35367 whole entry): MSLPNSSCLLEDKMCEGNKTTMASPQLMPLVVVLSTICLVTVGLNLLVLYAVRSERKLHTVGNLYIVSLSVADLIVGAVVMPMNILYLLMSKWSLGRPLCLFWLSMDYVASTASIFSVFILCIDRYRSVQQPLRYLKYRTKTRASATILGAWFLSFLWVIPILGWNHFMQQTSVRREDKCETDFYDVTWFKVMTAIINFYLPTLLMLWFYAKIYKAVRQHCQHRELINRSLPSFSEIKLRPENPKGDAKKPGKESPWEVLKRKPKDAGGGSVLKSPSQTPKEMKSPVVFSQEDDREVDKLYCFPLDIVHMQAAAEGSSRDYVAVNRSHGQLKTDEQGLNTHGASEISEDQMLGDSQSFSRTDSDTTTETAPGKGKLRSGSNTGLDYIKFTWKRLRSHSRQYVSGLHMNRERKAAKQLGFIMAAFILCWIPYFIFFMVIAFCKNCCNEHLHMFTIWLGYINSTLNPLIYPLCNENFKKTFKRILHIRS
Histamine H2 receptor (Homo sapiens), sequence (P25021 whole entry): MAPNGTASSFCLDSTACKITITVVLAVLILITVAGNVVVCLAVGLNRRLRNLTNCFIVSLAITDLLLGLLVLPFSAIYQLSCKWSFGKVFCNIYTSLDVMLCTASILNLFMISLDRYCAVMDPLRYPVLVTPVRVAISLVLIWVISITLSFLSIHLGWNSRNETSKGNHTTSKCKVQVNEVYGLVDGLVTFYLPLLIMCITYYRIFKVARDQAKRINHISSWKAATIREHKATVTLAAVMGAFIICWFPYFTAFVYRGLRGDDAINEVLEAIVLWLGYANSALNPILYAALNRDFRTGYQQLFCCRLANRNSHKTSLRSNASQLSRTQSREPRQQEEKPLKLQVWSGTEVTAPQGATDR

Cc1cc(N2CCC(N3CCCC3C)C2)ccc1NC(=O)c1cc(F)ccc1C (stereo unspecified)
Activity [1]: inactive | EC50 [2]: 1.1 nM | Activity (Mus musculus [3]): 30.4% | solubility [4]: 2670 µg/mL (≈ 6.75 mM) | metabolised [5]: 38% | metabolised [6]: 5% | Activity (Mus musculus [7]): 59.8% | Ki [8]: 1.2 nM | Ki (Histamine H3 receptor [9]): 16.5 nM | Papp [10]: 9.19 ×10⁻⁶ cm/s | Ki (Histamine H1 receptor): > 9300 nM | Ki (Histamine H3 receptor [11]): 8.6 nM | Activity (Mus musculus [12]): 39.6% | IC50 [13]: 480 nM | Activity (Mus musculus [14]): Dose-dependent effect

CC1CCCN1C1CCN(c2ccc(NC(=O)c3cn[nH]c3)cc2)C1 (stereo unspecified)
Ki [8]: 22.1 nM

Cc1noc(C)c1C(=O)Nc1ccc(N2CCC(N3CCCC3C)C2)cc1 (stereo unspecified)
metabolised [15]: 12% | metabolised [5]: 24% | metabolised [6]: 13% | Ki [8]: 2.1 nM

Cc1cc(N2CCC(N3CCCC3C)C2)ccc1NC(=O)c1cc2ccccc2[nH]1 (stereo unspecified)
Ki [8]: 71.1 nM

CC1CCCN1C1CCN(c2ccc(NC(=O)c3ccccc3F)cc2)C1 (stereo unspecified)
metabolised [15]: 31% | metabolised [5]: 48% | metabolised [6]: 12% | Ki [8]: 8.2 nM

Cc1cc(C(=O)Nc2ccc(N3CCC(N4CCCC4C)C3)cc2)n[nH]1 (stereo unspecified)
metabolised [15]: 16% | metabolised [5]: 37% | metabolised [6]: 2% | Ki [8]: 44.5 nM | Papp [10]: 9.19 ×10⁻⁶ cm/s

Cc1cc(N2CCC(N3CCCC3C)C2)ccc1NC(=O)c1ccc(S(C)(=O)=O)cc1 (stereo unspecified)
Ki [8]: 25.6 nM

Cc1cc(N2CCC(N3CCCC3C)C2)ccc1NC(=O)c1ccc(Oc2nccs2)cc1 (stereo unspecified)
Ki [8]: 24 nM

Cc1cc(N2CCC(N3CCCC3C)C2)ccc1NC(=O)c1cccc(F)c1 (stereo unspecified)
Ki [8]: 12.1 nM

Cc1cc(N2CC3CC4CCCN4C3C2)ccc1NC(=O)c1cc(F)ccc1C (stereo unspecified)
Ki [8]: 908 nM

Cc1cc(N2CCC(N3CCCC3C)C2)ccc1NC(=O)c1ccc(-c2ccncc2)cc1 (stereo unspecified)
Ki [8]: 26.7 nM

Cc1cc(N2CCC(CN3CCCC3C)C2)ccc1NC(=O)c1ccc2cc[nH]c2c1 (stereo unspecified)
Ki [8]: 18 nM

Cc1cc(N2CCC(N3CCCC3C)C2)ccc1NC(=O)c1c(C)noc1C (stereo unspecified)
Ki [8]: 2.6 nM

Cc1ccc(F)cc1C(=O)Nc1ccc(N2CCC(N3CCCC3C)C2)cc1 (stereo unspecified)
Ki [8]: 4.7 nM

Cc1cc(N2CCC(N3CCCC3C)C2)ccc1NC(=O)c1ccc2cc[nH]c2c1 (stereo unspecified)
metabolised [15]: 21% | metabolised [5]: 64% | metabolised [6]: 16% | Ki [8]: 15.1 nM | Papp [10]: 7.81 ×10⁻⁶ cm/s

CC1CCCN1C1CCN(c2ccc(NC(=O)c3cccc(F)c3)c(C(F)(F)F)c2)C1 (stereo unspecified)
Ki [8]: 40 nM

Cc1cc(N2CCC(CN3CCCC3C)C2)ccc1NC(=O)c1ccc(-n2cccc2)cc1 (stereo unspecified)
Ki [8]: 3.1 nM

Cc1cc(N2CCC(CN3CCCC3C)C2)ccc1NC(=O)c1ccc(C)c(S(C)(=O)=O)c1 (stereo unspecified)
Ki [8]: 29 nM

CC1CCCN1C1CCN(c2ccc(NC(=O)c3cccc(N(C)C)c3)cc2)C1 (stereo unspecified)
Ki [8]: 33.3 nM

Cc1cc(N2CCC(N3CCCC3C)C2)ccc1NC(=O)c1ccc2[nH]ccc2c1 (stereo unspecified)
Ki [8]: 30.4 nM

Cc1cc(NC(=O)c2cn[nH]c2)ccc1N1CCC(N2CCCC2C)C1 (stereo unspecified)
Ki [8]: 126 nM

Cc1cc(N2CCC(N3CCCC3C)C2)ccc1NC(=O)c1ccc(-c2ccccn2)cc1 (stereo unspecified)
Ki [8]: 12.2 nM

Cc1cc(N2CCC(N3CCCC3C)C2)ccc1NC(=O)c1ccc(-c2cccnc2)cc1 (stereo unspecified)
Ki [8]: 18.8 nM

Cc1cc(N2CCC(N3CCCC3C)C2)ccc1NC(=O)c1cc(Cl)cc(Cl)c1 (stereo unspecified)
Ki [8]: 24.1 nM

Cc1cc(N2CCC(N3CCCC3C)C2)ccc1NC(=O)c1cccnc1 (stereo unspecified)
metabolised [15]: 30% | metabolised [5]: 57% | metabolised [6]: 9% | Ki [8]: 10.1 nM

CC1CCCN1C1CCN(c2ccc(NC(=O)c3ccccc3N(C)C)cc2)C1 (stereo unspecified)
Ki [8]: 13.8 nM

Cc1cc(N2CCC(N3CCCC3C)C2)ccc1NC(=O)c1cn[nH]c1 (stereo unspecified)
metabolised [15]: 16% | metabolised [5]: 28% | metabolised [6]: 2% | Ki [8]: 24.7 nM | Papp [10]: 0.35 ×10⁻⁶ cm/s

Cc1cc(N2CCC(N3CCCC3C)C2)ccc1NC(=O)c1ccc(N2CCOCC2)cc1 (stereo unspecified)
Ki [8]: 44 nM

Cc1cc(N2CCC(N3CCCC3C)C2)ccc1NC(=O)c1cccs1 (stereo unspecified)
Ki [8]: 12.4 nM

Cc1cc(N2CCC(N3CCCC3C)C2)ccc1NC(=O)c1ccc(-n2cncn2)cc1 (stereo unspecified)
Ki [8]: 8.1 nM

Cc1cc(C)n(-c2ccc(C(=O)Nc3ccc(N4CCC(N5CCCC5C)C4)cc3C)cc2)n1 (stereo unspecified)
metabolised [15]: 89% | metabolised [5]: 79% | metabolised [6]: 87% | Ki [8]: 4.3 nM

Cc1ccc(F)cc1C(=O)Nc1ccc(N2CCC(N3CCCC3C)C2)cc1C(F)(F)F (stereo unspecified)
Ki [8]: 4 nM

Cc1cc(N2CCC(CN3CCCC3C)C2)ccc1NC(=O)c1ccc2[nH]ccc2c1 (stereo unspecified)
Ki [8]: 45 nM

CC1CCCN1C1CCN(c2ccc(NC(=O)c3ccc(CN4CCOCC4)cc3)cc2)C1 (stereo unspecified)
Ki [8]: 70.2 nM

Cc1cc(NC(=O)c2cc(Cl)cc(Cl)c2)ccc1N1CCC(N2CCCC2C)C1 (stereo unspecified)
Ki [8]: 54 nM

Cc1cc(NC(=O)c2cccs2)ccc1N1CCC(N2CCCC2C)C1 (stereo unspecified)
Ki [8]: 19.9 nM

Cc1cc(N2CCC(N3CCCC3C)C2)ccc1NC(=O)c1ccc(-n2cccn2)cc1 (stereo unspecified)
Ki [8]: 39.1 nM

Cc1cc(N2CCC(N3CCCC3C)C2)ccc1NC(=O)c1ccc(Cl)cc1 (stereo unspecified)
metabolised [15]: 22% | metabolised [5]: 33% | metabolised [6]: 32% | Ki [8]: 2.6 nM

Cc1cc(N2CCC(N3CCCC3C)C2)ccc1NC(=O)c1ccc(Oc2ccccn2)cc1 (stereo unspecified)
Ki [8]: 22.8 nM

CC1CCCN1C1CCN(c2ccc(NC(=O)c3ccccc3F)c(C(F)(F)F)c2)C1 (stereo unspecified)
metabolised [15]: 44% | metabolised [5]: 45% | metabolised [6]: 14% | Ki [8]: 16.9 nM

Cc1cc(N2CCC(N3CCCC3C)C2)ccc1NC(=O)c1ccccc1F (stereo unspecified)
Activity [1]: inactive | EC50 [2]: 2.9 nM | metabolised [5]: 28% | metabolised [6]: 15% | Ki [8]: 5.8 nM | Ki (Histamine H3 receptor [9]): 55.4 nM | Papp [10]: 9.24 ×10⁻⁶ cm/s | Ki (Histamine H1 receptor): > 9300 nM | Ki (Histamine H3 receptor [11]): 13.8 nM | IC50 [13]: 1000 nM

CC1CCCN1C1CCN(c2ccc(NC(=O)c3ccc(N(C)C)cc3)cc2)C1 (stereo unspecified)
Ki [8]: 33.5 nM

COc1ccc(C(=O)Nc2ccc(N3CCC(N4CCCC4C)C3)cc2)cc1 (stereo unspecified)
Ki [8]: 17.6 nM

Cc1cc(N2CCC(N3CCCC3C)C2)ccc1NC(=O)c1ccc(CO)cc1 (stereo unspecified)
Ki [8]: 12.7 nM

CC1CCCN1C1CCN(c2ccc(NC(=O)c3ccc(Cl)cc3)cc2)C1 (stereo unspecified)
inhibition at 10 µM (hERG (KCNH2) [16]): 95% | inhibition at 1 µM (hERG (KCNH2) [17]): 19.9% | metabolised [15]: 43% | metabolised [5]: 90% | metabolised [6]: 20% | Ki [8]: 4.7 nM

CC1CCCN1C1CCN(c2ccc(NC(=O)c3cccs3)cc2)C1 (stereo unspecified)
Ki [8]: 14 nM

Cc1cc(NC(=O)c2ccc(Cl)cc2)ccc1N1CCC(N2CCCC2C)C1 (stereo unspecified)
metabolised [15]: 43% | metabolised [5]: 90% | metabolised [6]: 29% | Ki [8]: 4.8 nM

Cc1cc(N2CCC(N3CCCC3C)C2)ccc1NC(=O)c1ccc(C)c(S(C)(=O)=O)c1 (stereo unspecified)
Ki [8]: 11.9 nM

Cc1cc(N2CCC(N3CCCC3C)C2)ccc1NC(=O)c1ccc(C#N)cc1 (stereo unspecified)
Ki [8]: 11.3 nM

CC1CCCN1C1CCN(c2ccc(NC(=O)c3cc(Cl)cc(Cl)c3)cc2)C1 (stereo unspecified)
inhibition (Histamine H3 receptor [18]): 119% | IC50 (Histamine H3 receptor [19]): 0.48 nM | Ki [8]: 49.5 nM

Cc1cc(NC(=O)c2c(C)noc2C)ccc1N1CCC(N2CCCC2C)C1 (stereo unspecified)
Ki [8]: 3.2 nM

CC1CCCN1C1CCN(c2ccc(NC(=O)c3cccc(F)c3)cc2)C1 (stereo unspecified)
Ki [8]: 10.6 nM

Cc1cc(N2CCC(CN3CCCC3C)C2)ccc1NC(=O)c1ccc(CO)cc1 (stereo unspecified)
Ki [8]: 62.1 nM
